According to ChEMBL document CHEMBL1201862, “PubChem BioAssay data set” (2004):
Calls of active or inactive are those of the source.

Legend:
[1] = tested on: MEF; experiment: SAR analysis of small molecule cytotoxicity of MazEF TA System activators in embryonic fibroblast (MEF) cells. [Related pubchem assays (depositor defined):AID504720, AID504743]; type: functional; conditions: Mus musculus
[2] = biological target: T1, Endoribonuclease toxin MazF (Escherichia coli K-12, UniProt P0AE70); experiment: MazEF toxin-antitoxin RNase activation – biochemical, fluorescence, single-stranded RNA substrate, SAR follow-up (AID 588603); type: functional
T1 sequence (P0AE70 whole entry): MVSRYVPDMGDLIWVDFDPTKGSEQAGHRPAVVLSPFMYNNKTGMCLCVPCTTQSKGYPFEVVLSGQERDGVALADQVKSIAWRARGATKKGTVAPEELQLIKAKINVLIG

[3] = biological target: T1, Endoribonuclease toxin MazF; experiment: SAR analysis of small molecule activators of the MazEF TA System via a fluorescence-based single-stranded RNase assay counterscreen. [Related pubchem assays (depositor defined):AID504720, AID504743]; type: functional
[4] = biological target: T1, Endoribonuclease toxin MazF; experiment: substrate-only fluorescence increase artefacts – biochemical, single-stranded RNase substrate, counter-screen for MazEF activator project, dose response (AID 588502); type: functional
[5] = biological target: T1, Endoribonuclease toxin MazF; experiment: activation of MazEF endoribonuclease cleavage – biochemical, fluorescence, single-stranded RNA substrate, uHTS hits, dose response (AID 588481); type: functional
[6] = tested on: HEK293; experiment: Fluorescence-based counterscreen for potentiators or agonists of NPY-Y1: cell-based high-throughput dose response assay for inhibitors of cyclic nucleotide gated ion channel (CNGC) activity. In this assay, the parental HEK293 cell line transfected with a cyclic-nucleotide gated ion channel (CNGC)-based cAMP sensor is used to measure inhibition of isoproterenol-induced CNGC …; type: functional; conditions: Homo sapiens
[7] = biological target: T2, Neuropeptide Y receptor type 1 (Homo sapiens, UniProt P25929); experiment: Fluorescence-based dose response cell-based high-throughput screening assay for agonists of NPY-Y1. [Related pubchem assays: 1697 (Screening assay (NPY-Y1 agonists).), 1359 (Screening assay (NPY-Y2 potentiators or agonists).), 1304 (Screening assay (NPY-Y1 potentiators or agonists).), 1704 (Screening assay (CNGC inhibitors).), 1791 (Summary AID.)]; type: functional
T2 sequence (P25929 whole entry): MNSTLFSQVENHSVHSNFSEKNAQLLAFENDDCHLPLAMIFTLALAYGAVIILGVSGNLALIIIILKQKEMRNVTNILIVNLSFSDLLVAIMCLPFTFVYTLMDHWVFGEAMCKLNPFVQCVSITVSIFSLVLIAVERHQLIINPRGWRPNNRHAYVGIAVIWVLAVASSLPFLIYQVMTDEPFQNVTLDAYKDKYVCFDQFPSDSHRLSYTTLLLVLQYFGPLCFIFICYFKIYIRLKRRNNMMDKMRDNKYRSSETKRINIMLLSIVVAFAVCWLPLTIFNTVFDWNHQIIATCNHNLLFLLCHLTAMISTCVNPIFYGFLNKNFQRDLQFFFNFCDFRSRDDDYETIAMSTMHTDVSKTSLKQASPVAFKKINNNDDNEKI

[8] = biological target: T3, Neuropeptide Y receptor type 2 (Homo sapiens, UniProt P49146); experiment: Fluorescence-based counterscreen for agonists of NPY-Y1: cell-based high-throughput dose response assay for agonists of NPY-Y2.; type: functional
T3 sequence (P49146 whole entry): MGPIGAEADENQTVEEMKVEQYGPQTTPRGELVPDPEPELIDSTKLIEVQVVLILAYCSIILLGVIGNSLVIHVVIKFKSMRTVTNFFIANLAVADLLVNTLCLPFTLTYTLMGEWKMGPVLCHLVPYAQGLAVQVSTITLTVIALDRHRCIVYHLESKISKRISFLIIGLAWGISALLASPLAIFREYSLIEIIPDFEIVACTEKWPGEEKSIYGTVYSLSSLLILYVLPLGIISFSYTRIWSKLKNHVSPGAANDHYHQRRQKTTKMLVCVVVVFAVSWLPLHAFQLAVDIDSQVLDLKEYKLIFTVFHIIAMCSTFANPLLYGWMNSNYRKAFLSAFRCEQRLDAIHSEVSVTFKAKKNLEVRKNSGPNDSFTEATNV

[9] = biological target: DNA topoisomerase (Yersinia pestis, UniProt A0A2S9PM60); experiment: Yersinia topoisomerase I cleavage product accumulation – biochemical, cherry-pick, dose response (AID 588525)
[10] = viability loss in HeLa cells – cytotoxicity control for MgcRacGAP inhibitor project, dose response (AID 624300); type: functional
[11] = biological target: Nonstructural protein 1 (Influenza A virus, UniProt Q194T2); type: functional, Influenza A virus (A/California/07/2009(H1N1))
[12] = biological target: T4, Histone-lysine N-methyltransferase NSD2 (Homo sapiens, UniProt O96028); type: biochemical
T4 sequence (O96028 whole entry): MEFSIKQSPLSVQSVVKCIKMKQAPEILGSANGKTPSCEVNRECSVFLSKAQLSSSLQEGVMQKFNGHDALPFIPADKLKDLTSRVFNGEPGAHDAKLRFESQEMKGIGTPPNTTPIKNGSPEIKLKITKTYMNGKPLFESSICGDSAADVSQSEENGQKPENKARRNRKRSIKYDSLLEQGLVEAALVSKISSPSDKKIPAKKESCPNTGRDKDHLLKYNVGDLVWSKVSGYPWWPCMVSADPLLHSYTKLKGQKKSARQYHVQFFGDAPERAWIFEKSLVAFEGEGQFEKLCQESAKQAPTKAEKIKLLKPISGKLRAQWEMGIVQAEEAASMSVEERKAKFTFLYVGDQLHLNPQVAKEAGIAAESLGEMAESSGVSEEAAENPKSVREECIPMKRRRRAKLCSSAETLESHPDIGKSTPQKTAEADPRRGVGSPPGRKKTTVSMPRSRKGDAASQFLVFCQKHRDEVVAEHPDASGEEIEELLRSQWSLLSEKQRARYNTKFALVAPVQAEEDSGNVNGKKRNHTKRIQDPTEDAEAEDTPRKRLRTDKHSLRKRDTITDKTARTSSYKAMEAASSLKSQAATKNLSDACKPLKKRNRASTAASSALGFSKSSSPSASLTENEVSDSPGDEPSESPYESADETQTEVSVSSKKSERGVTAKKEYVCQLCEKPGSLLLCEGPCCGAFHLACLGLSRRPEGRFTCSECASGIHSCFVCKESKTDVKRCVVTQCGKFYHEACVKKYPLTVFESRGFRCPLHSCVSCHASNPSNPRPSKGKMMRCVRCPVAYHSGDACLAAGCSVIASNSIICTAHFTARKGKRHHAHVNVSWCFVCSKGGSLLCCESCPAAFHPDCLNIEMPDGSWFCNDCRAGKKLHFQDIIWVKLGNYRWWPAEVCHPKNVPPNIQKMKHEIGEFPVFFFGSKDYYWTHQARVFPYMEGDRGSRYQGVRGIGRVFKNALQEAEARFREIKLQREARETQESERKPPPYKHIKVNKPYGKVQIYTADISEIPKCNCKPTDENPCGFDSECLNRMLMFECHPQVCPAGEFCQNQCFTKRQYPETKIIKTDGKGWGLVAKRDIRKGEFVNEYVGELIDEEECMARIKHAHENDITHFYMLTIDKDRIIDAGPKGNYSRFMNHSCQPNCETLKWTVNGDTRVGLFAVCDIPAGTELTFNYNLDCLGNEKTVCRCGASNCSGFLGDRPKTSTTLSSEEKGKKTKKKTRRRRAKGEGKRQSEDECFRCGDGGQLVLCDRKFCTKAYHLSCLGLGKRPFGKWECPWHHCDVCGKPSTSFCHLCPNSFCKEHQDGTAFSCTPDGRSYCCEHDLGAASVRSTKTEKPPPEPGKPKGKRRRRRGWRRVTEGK

[13] = biological target: T5, Rac GTPase-activating protein 1 (Homo sapiens, UniProt Q9H0H5); experiment: blockers of MgcRacGAP-driven Rac1 GTP hydrolysis – biochemical, ADP Hunter fluorescence, primary and confirmatory, confirmation (AID 624330); type: functional
T5 sequence (Q9H0H5 whole entry): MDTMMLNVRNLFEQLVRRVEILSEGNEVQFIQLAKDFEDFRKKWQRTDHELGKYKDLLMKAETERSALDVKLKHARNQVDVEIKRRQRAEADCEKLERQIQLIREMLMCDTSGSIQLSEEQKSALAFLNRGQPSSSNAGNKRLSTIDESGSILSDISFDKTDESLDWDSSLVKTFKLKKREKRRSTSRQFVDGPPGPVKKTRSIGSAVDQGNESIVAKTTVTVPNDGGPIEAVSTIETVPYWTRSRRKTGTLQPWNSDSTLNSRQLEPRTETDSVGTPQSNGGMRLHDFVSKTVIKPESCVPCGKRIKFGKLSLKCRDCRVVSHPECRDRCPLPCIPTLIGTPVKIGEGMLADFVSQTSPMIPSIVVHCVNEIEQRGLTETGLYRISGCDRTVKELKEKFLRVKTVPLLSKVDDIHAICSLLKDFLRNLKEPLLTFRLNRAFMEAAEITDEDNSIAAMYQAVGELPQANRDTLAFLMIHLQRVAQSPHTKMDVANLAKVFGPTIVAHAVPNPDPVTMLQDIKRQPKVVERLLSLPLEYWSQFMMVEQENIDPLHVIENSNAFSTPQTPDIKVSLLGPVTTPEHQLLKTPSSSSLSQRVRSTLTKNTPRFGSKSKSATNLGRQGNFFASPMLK

Sequence of DNA topoisomerase (A0A2S9PM60 whole entry): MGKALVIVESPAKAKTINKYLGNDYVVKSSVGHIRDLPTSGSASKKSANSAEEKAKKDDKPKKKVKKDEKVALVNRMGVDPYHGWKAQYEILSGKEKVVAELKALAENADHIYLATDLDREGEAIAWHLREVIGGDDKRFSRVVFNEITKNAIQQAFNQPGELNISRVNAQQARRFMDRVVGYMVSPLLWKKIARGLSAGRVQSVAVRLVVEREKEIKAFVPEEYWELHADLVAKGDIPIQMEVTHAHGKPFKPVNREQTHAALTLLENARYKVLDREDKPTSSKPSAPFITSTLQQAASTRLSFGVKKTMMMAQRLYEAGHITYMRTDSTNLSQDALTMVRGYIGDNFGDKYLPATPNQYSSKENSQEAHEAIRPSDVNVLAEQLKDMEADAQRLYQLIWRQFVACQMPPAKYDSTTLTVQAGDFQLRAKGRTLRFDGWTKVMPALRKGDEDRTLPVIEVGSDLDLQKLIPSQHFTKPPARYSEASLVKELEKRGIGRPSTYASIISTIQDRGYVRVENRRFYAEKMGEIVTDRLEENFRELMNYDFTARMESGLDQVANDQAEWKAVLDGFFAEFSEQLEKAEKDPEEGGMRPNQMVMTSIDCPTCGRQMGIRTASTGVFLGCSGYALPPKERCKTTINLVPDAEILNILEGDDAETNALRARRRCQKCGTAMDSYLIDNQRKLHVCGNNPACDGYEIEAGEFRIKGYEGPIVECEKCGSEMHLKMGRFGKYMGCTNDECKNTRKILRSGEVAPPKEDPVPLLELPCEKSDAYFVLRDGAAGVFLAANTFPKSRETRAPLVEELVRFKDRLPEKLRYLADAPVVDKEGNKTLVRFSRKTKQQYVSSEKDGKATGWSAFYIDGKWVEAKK
Sequence of Nonstructural protein 1 (Q194T2 whole entry): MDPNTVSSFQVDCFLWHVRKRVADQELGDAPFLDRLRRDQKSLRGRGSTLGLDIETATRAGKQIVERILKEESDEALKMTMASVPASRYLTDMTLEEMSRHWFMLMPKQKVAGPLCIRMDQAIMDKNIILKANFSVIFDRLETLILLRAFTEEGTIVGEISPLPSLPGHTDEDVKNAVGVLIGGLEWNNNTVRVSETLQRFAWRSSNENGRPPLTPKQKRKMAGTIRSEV

Structure (SMILES) | CC50 [1] | EC50 [2] | EC50 [3] | EC50 [4] | EC50 [5] | IC50 [6] | EC50 [7] | EC50 [8] | AC50 [9] | CC50 [10] | IC50 [11] | AC50 [12] | IC50 [13]
O=C(Nc1ccc(Cl)cc1Cl)NC1CCN(S(=O)(=O)c2ccc(F)cc2)CC1 | 11.8 µM (active) | 26.9 µM (inactive) | > 99 µM (inactive) | > 99 µM (inactive) | 7.09 µM (active) | 4.36 µM (active) | 7.41 µM (active) | 6.58 µM (active) |  |  |  |  | 
COc1cccc2c1C(=N)c1c(O)c3c(c(O)c1C2=O)C[C@@](O)(C(C)=O)C[C@@H]3O[C@H]1C[C@H](N)[C@H](O)[C@H](C)O1 |  |  |  |  |  |  |  |  | 4.44 µM (active) | 35.4 µM (active) | 11.2 µM (active) | 11.5 µM (active) | 50.8 µM (active)
